Assay results as given in patent publication US20240207228A1, “A COMBINATION COMPRISING A SPECIFIC HDAC6 INHIBITOR AND AT LEAST ONE CTLA4 CHECKPOINT INHIBITOR” (ITALFARMACO SPA, priority 2021, published 2024).

Key:
[1] = test system: mouse colon carcinoma cell line CT26; assay: Anti-tumor effect in the CT26 murine model (tumor growth inhibition from tumor nodule volume/weight); type: in vivo; parameters: key to Statistical significance vs Control group on day 10 / Statistical significance vs Control group on day 12 / Statistical significance vs Control group on day 14 / Statistical significance vs Control group on day 17 / Statistical significance vs Control group on day 19 / Statistical significance vs Control group on day 21 / Statistical significance vs Control group on day 24: n.s.: not significant; *: p < 0.05; **: p < 0.01; conditions: for Statistical significance vs Control group on day 10 / Statistical significance vs Control group on day 12 / Statistical significance vs Control group on day 14 / Statistical significance vs Control group on day 17 / Statistical significance vs Control group on day 19 / Statistical significance vs Control group on day 21 / Statistical significance vs Control group on day 24: CT26 tumor growth
Procedure: The anti-tumor efficacy of ITF3756, administered in combination with anti-CTLA4 antibody, has been determined using a murine model based on the use of the mouse colon carcinoma cell line CT26. In this model, the CT26 cells are implanted subcutaneously to syngeneic mice and the efficacy is determined as tumor growth inhibition on the basis of the volume of the tumor nodule.
ITF3756 was synthetized by the Medicinal Chemistry Dept. of Italfarmaco SpA. ITF3756, batch 5, as powder was solubilized in DMSO and stored at −20° C. On each day of administration, the solution was diluted with H2O/PEG 400 1:1 to obtain a final solution of H2O/PEG 400 1:1 in DMSO 0.5% at 2.5 and 5.0 mg/mL.
The solutions were administered orally by using gavage needles for mice, in a volume of 200 μL (final doses 25 and 50 mg/Kg).
ITF3756 administration started when the tumor nodules were palpable (around day 10 from cells inoculation).
Syrian hamster IgG Mab anti-mouse CTLA4 was purchased from BioXell (cat. BE0131, clone 9H10), diluted with PBS at 1, 0.3 and 0.1 mg/mL final concentration and stored at +4° C. Each mouse was treated with 200 μL of the respective solution (final doses 10.0, 3.0 and 1.0 mg/Kg).
Anti-CTLA4 Mab administration started when the tumor nodules were palpable (around day 10 from cells inoculation). Anti-CTLA4 was administered intraperitoneally (ip) once a day on alternate days for a total of 4 treatments, followed by 7 days of wash-out, as reported in table 1. This treatment cycle continued up to the end of the study.
Female 6 weeks old BALB/c mice were purchased from Charles River Italia and maintained with food and water ad libitum, under light-dark cycle of 12 hours.
After 5 days of acclimatization, the mice were submitted to tumor cells injection.
CT26 (murine BALB/c colon carcinoma, CT26.WT ATCC CRL-2638) cells were grown in RPMI 1640 cell culture medium+10% fetal calf serum (FCS).
The cells were detached, during the exponential phase, with trypsin, washed with the culture medium without FCS and suspended at 5×10^6 cells/mL final concentration.
The cells (1×10^6 cells/mouse) were injected s.c. in the inguinal region of the right flank of the mice in a volume of 200 μL.
When the tumor nodule was palpable in at least 80% of the animals, the mice were randomized in the following experimental groups and drugs administration was started.
Body weight was measured on alternate days, starting from the first day of drug administration.
The volume of subcutaneous tumor nodules was determined on alternate days, according to the following formula (Papagiannoros A. et al. in vivo 20:129-136, 2006):
where D=major diameter of the nodule and d=minor diameter of the nodule.
The weight of the tumor nodule was determined by the tumor volume considering a tumor density of 1.05 g/mL (Jensen M. M. et al. BMC Medical Imaging 8(16), 2008).
The animals were euthanized when the tumor weight was equal to the 10% of body weight or the tumor nodules were ulcerated (humane end-points).
The statistical analysis of the drugs effect was carried out by 2-way ANOVA with Dunnett's multiple comparisons test using GraphPad Prism 8 software.

female NOD mice = assay: Diabetes induction in female NOD mice (glycemia); type: in vivo; conditions: day 0-21, ITF3756 50 mg/kg os 3x/day, antibodies 500 μg (d0) + 250 μg/mouse ip, diabetes = glucose >250 mg/dL two consecutive days
Procedure: NOD mice spontaneously developed diabetes and they represent a widely accepted spontaneous model of Type 1 diabetes mellitus (Pearson et al., 2016, Journal of Autoimmunity 66, 76-88).
ITF3756 was synthetized by the Medicinal Chemistry Dept. of Italfarmaco SpA. ITF3756, batch 9, as powder was solubilized in DMSO and stored at −20° C.
Antibody treatment was according to Ansari (Ansari et al., 2003, The Journal of experimental medicine 1 98, 63-69)
Glycemia was evaluated in all mice for 3 weeks from day 0 (start treatment) until day 21 (end of study). Blood glucose levels were measured by glucometer One Touch® Verio. Blood samples were drawn from the tail vein by a prick with a needle. A drop of blood was inserted in a test strip and glucometer automatically calculated the glucose level. Results were shown in the display of the instrument. The instrument measures from 20 to 600 mg/dL. Results below 20 or above 600 mg/dL are visualized by the instrument as “below 20” or “above 600”.
Diabetes was defined by blood glucose reading of >250 mg/dL for two consecutive days.
Mice were monitored for 3 weeks; during this time, body weight was measured 7 times.

[2] = test system: 4T1 triple negative breast cancer; assay: 4T1 breast cancer model, previous experiments with single agents; type: in vivo, mouse; conditions: each drug as single agent
Procedure: […] mice challenged with syngeneic tumor cell line 4T1 triple negative breast cancer are used.
4T1 tumor model is considered a poorly immunogenic tumor (Demaria et al., Clin. Cancer Res. 11, 728-734, 2005).
ITF3756 is used at the same dosage used for the treatment of CT26 colon cancer, namely 50 mg/kg (mpk) TID as single agent and in combination with anti CTLA-4 antibody. The latter is administered at 3 mpk 3 times a week on alternate days.
Tumor growth is induced after subcutaneous injection of cell line and mice are monitored for at least three weeks post-injection.

PD-L1 [3] = assay: Cytokine-induced PD-L1 expression in human monocytes stimulated in vitro; type: cell-based
PD-L1 [4] = assay: PD-L1 expression in mouse immune cells in vivo; conditions: ITF3756 50 mg/Kg three times a day
[5] = Mean level in 24 hours after the efficacious schedule in the mouse; type: in vivo; conditions: administration schedule that had shown efficacy, used as target for projected doses
Procedure: The human doses for ITF3756 were predicted using a physiologically based pharmacokinetic (PBPK) model, through the use of the software GastroPlus™ (Simulation Plus, Lancaster, CA). The target Caverage for projected doses was 200 ng/mL, mean level in 24 hours found after the administration schedule that had shown efficacy in the mouse.

Caverage, mean level in 24 hours [5]: 200 ng/mL
Compound: O=C(NO)c1ccc(Cn2nnnc2-c2cccs2)cc1 [ITF3756, N-hydroxy-4-((5-(thiophen-2-yl)-1H-tetrazol-1-yl)methyl)benzamide]
Statistical significance vs Control group on day 10 ([1]; ITF3756 25 mg/Kg): n.s.
Statistical significance vs Control group on day 12 ([1]; ITF3756 25 mg/Kg): n.s.
Statistical significance vs Control group on day 14 ([1]; ITF3756 25 mg/Kg): n.s.
Statistical significance vs Control group on day 17 ([1]; ITF3756 25 mg/Kg): n.s.
Statistical significance vs Control group on day 19 ([1]; ITF3756 25 mg/Kg): n.s.
Statistical significance vs Control group on day 21 ([1]; ITF3756 25 mg/Kg): n.s.
Statistical significance vs Control group on day 24 ([1]; ITF3756 25 mg/Kg): n.s.
Statistical significance vs Control group on day 10 ([1]; ITF3756 50 mg/Kg): n.s.
Statistical significance vs Control group on day 12 ([1]; ITF3756 50 mg/Kg): n.s.
Statistical significance vs Control group on day 14 ([1]; ITF3756 50 mg/Kg): n.s.
Statistical significance vs Control group on day 17 ([1]; ITF3756 50 mg/Kg): n.s.
Statistical significance vs Control group on day 19 ([1]; ITF3756 50 mg/Kg): n.s.
Statistical significance vs Control group on day 21 ([1]; ITF3756 50 mg/Kg): * (p < 0.05)
Statistical significance vs Control group on day 24 ([1]; ITF3756 50 mg/Kg): n.s.
Statistical significance vs Control group on day 10 ([1]; ITF3756 50 mg/Kg x3): n.s.
Statistical significance vs Control group on day 12 ([1]; ITF3756 50 mg/Kg x3): n.s.
Statistical significance vs Control group on day 14 ([1]; ITF3756 50 mg/Kg x3): n.s.
Statistical significance vs Control group on day 17 ([1]; ITF3756 50 mg/Kg x3): n.s.
Statistical significance vs Control group on day 19 ([1]; ITF3756 50 mg/Kg x3): * (p < 0.05)
Statistical significance vs Control group on day 21 ([1]; ITF3756 50 mg/Kg x3): ** (p < 0.01)
Statistical significance vs Control group on day 24 ([1]; ITF3756 50 mg/Kg x3): ** (p < 0.01)
inhibition of tumor growth ([1]; ITF3756 25 mg/Kg orally once a day, day 24): 7%
tumor weight ([1]; ITF3756 25 mg/Kg orally once a day, day 24, control 1.89 g): 1.76 g
inhibition of tumor growth ([1]; ITF3756 25 mg/Kg orally once a day, entire experimental period): did not show a significant inhibition of tumor growth
inhibition of tumor growth ([1]; ITF3756 50 mg/Kg orally 3 times a day, day 24): 30%
tumor weight ([1]; ITF3756 50 mg/Kg orally 3 times a day, day 24, control 1.89 g): 1.32 g
inhibition of tumor growth ([1]; ITF3756 50 mg/Kg orally once a day, day 21): 34%
tumor weight ([1]; ITF3756 50 mg/Kg orally once a day, day 21, control 1.34 g): 0.88 g
inhibition of tumor growth ([1]; ITF3756 50 mg/Kg orally once a day, day 24): 9%
tumor weight ([1]; ITF3756 50 mg/Kg orally once a day, day 24, control 1.89 g): 1.72 g
induction of diabetes (female NOD mice): did not accelerates the induction of autoimmune diabetes
average reduction of tumor growth [2]: approximately 40%
cytokine-induced expression of PD-L1 (PD-L1 [3]): decreases
PD-L1 expression (PD-L1 [4]): decreased
